Data set [1] in a line: Cellular CaCo2 permeability assay from apical to basal (A-B). The settings on record: human, Caco-2, read-out: Pe A-B (permeability). In kind it is in vitro ADME. The text has this: The permeability in 10^−6 cm/s of compounds of formula (I) have been confirmed for selected example using a cellular CaCo2 permeability assay from apical to basal (A-B): […]
Background: Caco-2 monolayers are a common model of the intestinal barrier.

Another data set concerns the target T1, PI3K alpha (Homo sapiens, UniProt P42336).
T1 construct: p85(iSH2) fusion partner (see partner chain) (N); His tag (C); made in house; host or cells: baculovirus; Tn5 (Trichoplusia ni) or TiniPro insect cells
Put plainly: PI3K alpha kinase assay (Kinase-Glo luminescence). In kind it is biochemical. Put shortly: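 PI3K alpha at 10 nM with 1 μM ATP and 10 μg/mL phosphatidylinositol in 10 mM TRIS pH 7.5, 3 mM MgCl2, 50 mM NaCl, 0.05% CHAPS, 1 mM DTT, 60 min at room temperature. Remaining ATP read by Kinase-Glo luminescence. IC50 by 4-parameter fit over 8 concentrations.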
In general terms: Kinase-Glo reads ATP consumption through a luciferase reaction.

Another data set concerns the target T2, PI3K beta (Homo sapiens, UniProt P42338).
T2 construct: for the full-length p110-b subunit are generated and fused by overlapping PCR; p85(iSH2) fusion partner (see partner chain) (N); His tag (C); made in house; host or cells: baculovirus; Tn5 (Trichoplusia ni) or TiniPro insect cells
Put plainly: PI3K beta kinase assay (Kinase-Glo luminescence). The format is biochemical. Put shortly:
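IC50 is derived by four-parameter logistic curve fitting of Kinase-Glo luminescence, which measures ATP left after a 60 min room-temperature reaction. Conditions are 25 nM His-tagged p85(iSH2)-p110β, 1 μM ATP and 10 μg/mL bovine liver phosphatidylinositol.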

A further data set addresses T3, PI3K delta (Homo sapiens, UniProt O00329).
T3 construct: for the full-length p110-d subunit are generated and fused by overlapping PCR; p85(iSH2) fusion partner (see partner chain) (N); His tag (C); made in house; host or cells: baculovirus; Tn5 (Trichoplusia ni) or TiniPro insect cells
Nature of the data set: PI3K delta kinase assay (Kinase-Glo luminescence). In kind it is biochemical. Put shortly:
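Construct BV-1060, p85 iSH2–linker–full-length p110δ, His-tagged, at 10 nM, with 1 μM ATP and 10 μg/mL phosphatidylinositol in pH 7.5 Tris, 3 mM MgCl2, 50 mM NaCl, 0.05% CHAPS. Run 60 min at room temperature; remaining ATP read by Kinase-Glo luminescence; IC50 from 4-parameter logistic fit of 8 concentrations.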

A further data set concerns the target T4, PI3K gamma (Homo sapiens, UniProt P48736).
T4 construct: His tag (C); made in house; host or cells: baculovirus (pVL1393); Tn5 or TiniPro insect cells; construct from Roger Williams lab, MRC LMB
Nature of the data set: PI3K gamma kinase assay (Kinase-Glo luminescence). In kind it is biochemical. In outline:
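PI3Kγ (150 nM) reaction run 120 min at room temperature with phosphatidylinositol substrate (10 μg/mL) and ATP (1 μM) in Tris pH 7.5 buffer containing MgCl2, NaCl, CHAPS and DTT. Remaining ATP detected by Kinase-Glo luminescence; 8 concentrations per compound, IC50 from 4-parameter curve fitting.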

T2 sequence (P42338 with tags, fused parts or gaps limits assumed): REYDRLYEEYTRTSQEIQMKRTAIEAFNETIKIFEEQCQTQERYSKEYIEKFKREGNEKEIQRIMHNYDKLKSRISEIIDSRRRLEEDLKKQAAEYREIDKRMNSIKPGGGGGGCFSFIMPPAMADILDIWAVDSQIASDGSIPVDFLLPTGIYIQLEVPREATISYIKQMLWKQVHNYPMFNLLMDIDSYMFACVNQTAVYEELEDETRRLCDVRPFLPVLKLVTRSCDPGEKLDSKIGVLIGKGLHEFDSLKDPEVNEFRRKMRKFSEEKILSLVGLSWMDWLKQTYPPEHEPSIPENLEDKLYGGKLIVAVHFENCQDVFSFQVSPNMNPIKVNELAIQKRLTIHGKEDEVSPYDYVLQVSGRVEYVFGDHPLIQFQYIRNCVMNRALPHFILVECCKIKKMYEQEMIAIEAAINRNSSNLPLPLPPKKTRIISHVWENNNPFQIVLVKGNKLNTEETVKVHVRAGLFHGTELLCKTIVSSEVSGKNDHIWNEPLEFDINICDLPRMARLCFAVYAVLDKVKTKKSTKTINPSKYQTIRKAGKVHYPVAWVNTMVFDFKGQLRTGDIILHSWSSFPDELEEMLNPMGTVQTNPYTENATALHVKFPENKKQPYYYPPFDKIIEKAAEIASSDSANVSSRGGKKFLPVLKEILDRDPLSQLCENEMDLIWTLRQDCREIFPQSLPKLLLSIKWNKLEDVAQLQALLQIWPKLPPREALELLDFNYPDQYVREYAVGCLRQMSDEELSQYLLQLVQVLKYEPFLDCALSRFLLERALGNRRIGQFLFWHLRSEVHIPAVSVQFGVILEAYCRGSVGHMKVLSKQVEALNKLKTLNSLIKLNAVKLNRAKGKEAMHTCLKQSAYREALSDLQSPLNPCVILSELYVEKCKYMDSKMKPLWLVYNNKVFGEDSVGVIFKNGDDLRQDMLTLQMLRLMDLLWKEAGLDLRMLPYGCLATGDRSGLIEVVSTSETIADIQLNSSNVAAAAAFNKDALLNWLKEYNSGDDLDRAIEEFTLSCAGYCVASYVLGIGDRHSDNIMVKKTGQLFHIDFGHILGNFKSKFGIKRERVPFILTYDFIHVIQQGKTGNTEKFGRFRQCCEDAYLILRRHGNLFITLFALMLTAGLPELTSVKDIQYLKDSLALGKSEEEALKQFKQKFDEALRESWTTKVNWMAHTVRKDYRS
T3 sequence (O00329 with tags, fused parts or gaps limits assumed): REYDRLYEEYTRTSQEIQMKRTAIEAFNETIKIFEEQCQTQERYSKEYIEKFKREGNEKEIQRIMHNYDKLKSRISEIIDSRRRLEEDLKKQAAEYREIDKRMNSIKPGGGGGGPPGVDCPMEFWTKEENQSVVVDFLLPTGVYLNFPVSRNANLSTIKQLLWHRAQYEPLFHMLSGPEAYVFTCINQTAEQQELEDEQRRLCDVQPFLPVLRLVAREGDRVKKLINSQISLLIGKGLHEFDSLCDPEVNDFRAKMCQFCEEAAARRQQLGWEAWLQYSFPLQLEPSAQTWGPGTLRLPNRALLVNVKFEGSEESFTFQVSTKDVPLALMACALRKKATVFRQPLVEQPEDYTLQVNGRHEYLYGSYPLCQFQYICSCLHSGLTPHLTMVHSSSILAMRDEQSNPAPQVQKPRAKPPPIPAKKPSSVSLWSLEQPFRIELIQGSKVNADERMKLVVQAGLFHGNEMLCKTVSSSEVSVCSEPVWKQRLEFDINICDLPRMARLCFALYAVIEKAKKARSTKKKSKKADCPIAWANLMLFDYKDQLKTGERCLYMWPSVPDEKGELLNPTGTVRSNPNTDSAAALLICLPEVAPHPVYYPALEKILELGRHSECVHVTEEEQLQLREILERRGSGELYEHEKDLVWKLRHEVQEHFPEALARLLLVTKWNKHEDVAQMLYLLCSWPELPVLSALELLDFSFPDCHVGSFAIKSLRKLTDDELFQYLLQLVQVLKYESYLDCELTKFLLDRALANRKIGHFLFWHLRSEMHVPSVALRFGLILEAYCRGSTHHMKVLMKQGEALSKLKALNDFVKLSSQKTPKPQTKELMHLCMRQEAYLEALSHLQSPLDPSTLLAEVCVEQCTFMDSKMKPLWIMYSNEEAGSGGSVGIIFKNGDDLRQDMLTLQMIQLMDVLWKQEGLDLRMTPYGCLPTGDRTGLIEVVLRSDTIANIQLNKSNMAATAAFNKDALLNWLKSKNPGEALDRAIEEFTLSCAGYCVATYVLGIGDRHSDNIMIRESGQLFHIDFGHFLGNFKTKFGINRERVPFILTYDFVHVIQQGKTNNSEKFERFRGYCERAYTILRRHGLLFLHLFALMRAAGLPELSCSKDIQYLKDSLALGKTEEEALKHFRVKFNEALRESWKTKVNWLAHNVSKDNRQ
T4 sequence (P48736 144-1102 limits assumed): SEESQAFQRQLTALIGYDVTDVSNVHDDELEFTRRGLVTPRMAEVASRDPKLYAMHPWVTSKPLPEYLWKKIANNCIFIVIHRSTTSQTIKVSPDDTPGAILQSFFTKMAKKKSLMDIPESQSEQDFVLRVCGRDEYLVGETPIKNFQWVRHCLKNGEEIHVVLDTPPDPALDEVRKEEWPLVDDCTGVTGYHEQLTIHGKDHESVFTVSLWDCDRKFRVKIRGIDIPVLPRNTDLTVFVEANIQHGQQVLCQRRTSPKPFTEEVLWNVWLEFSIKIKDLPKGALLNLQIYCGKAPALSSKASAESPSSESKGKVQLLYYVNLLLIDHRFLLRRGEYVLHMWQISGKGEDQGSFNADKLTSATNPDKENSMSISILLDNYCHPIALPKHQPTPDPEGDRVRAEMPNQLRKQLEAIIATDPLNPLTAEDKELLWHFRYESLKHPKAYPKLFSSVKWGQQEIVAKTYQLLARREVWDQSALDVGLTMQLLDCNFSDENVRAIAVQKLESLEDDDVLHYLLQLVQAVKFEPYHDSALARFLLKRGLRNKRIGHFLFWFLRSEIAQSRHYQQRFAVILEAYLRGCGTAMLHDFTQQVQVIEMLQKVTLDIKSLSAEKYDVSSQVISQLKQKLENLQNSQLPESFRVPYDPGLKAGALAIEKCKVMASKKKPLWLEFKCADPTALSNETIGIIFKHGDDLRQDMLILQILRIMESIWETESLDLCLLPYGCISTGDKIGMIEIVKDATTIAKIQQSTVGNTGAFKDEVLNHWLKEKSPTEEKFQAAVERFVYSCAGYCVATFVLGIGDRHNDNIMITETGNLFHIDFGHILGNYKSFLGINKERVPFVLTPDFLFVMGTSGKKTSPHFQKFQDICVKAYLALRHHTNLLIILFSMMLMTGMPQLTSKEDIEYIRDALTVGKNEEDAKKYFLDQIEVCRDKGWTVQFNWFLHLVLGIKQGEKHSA
T1 sequence (P42336 with tags, fused parts or gaps limits assumed): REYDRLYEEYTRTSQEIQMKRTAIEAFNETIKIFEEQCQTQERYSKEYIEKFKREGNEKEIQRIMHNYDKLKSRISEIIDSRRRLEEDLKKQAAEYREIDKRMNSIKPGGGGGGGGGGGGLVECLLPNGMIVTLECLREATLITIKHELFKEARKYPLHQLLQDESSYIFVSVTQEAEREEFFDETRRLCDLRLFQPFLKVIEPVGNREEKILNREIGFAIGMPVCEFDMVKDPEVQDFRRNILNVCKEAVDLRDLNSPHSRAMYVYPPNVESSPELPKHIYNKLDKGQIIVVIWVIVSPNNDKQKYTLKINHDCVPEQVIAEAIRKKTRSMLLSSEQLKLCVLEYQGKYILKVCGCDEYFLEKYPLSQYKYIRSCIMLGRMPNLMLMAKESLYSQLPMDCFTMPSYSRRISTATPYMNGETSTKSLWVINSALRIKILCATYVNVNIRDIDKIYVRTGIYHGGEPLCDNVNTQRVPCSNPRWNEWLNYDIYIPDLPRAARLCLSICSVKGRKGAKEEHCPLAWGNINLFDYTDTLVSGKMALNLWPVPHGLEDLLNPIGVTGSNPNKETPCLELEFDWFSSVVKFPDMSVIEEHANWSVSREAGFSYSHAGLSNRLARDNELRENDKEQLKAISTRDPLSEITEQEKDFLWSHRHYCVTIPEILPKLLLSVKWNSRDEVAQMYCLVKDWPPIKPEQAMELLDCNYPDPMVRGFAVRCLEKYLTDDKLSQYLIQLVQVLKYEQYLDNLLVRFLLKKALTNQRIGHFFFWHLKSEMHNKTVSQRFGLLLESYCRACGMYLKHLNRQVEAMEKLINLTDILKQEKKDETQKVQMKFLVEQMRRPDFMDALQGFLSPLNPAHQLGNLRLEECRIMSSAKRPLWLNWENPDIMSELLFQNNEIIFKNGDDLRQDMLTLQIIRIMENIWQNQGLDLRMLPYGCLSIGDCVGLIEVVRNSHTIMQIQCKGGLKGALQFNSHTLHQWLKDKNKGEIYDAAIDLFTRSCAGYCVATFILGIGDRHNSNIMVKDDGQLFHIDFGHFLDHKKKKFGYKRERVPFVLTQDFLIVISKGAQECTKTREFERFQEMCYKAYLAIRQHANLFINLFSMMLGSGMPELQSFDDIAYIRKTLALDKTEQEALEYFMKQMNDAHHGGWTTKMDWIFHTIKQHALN

On to `CCOc1ccc(-c2ccc3ncc4c(c3c2)n(-c2cn(C)nc2C)c(=O)n4C)cn1` [Example 3.1, 1-(1,3-Dimethyl-1H-pyrazol-4-yl)-8-(6-ethoxy-pyridin-3-yl)-3-methyl-1,3-dihydro-imidazo[4,5-c]quinolin-2-one], for which the Papp A→B in data set [1] came to 28.6 ×10⁻⁶ cm/s. Moreover, the half-maximal inhibitory concentration (IC50) (in general, the midpoint of a concentration-inhibition curve) on PI3K alpha is 0.021 µM; on PI3K beta, 0.192 µM; on PI3K delta, 0.037 µM; on PI3K gamma, 0.246 µM.

As to `CCOc1cncc(-c2ccc3ncc4c(c3c2)n(-c2cn(C)nc2C)c(=O)n4C)c1` [Example 56.1, 1-(1,3-Dimethyl-1H-pyrazol-4-yl)-8-(5-ethoxy-pyridin-3-yl)-3-methyl-1,3-dihydro-imidazo[4,5-c]quinolin-2-one], the Papp A→B in data set [1] was found to be 39.7 ×10⁻⁶ cm/s. The IC50 at PI3K alpha was 0.004 µM; on PI3K beta, 0.006 µM; at PI3K delta, 0.006 µM; on PI3K gamma it was 0.123 µM.

Take `COc1cncc(-c2ccc3ncc4c(c3c2)n(-c2cn(C)nc2C)c(=O)n4C)c1` [Example 12, 1-(1,3-Dimethyl-1H-pyrazol-4-yl)-8-(5-methoxy-pyridin-3-yl)-3-methyl-1,3-dihydro-imidazo[4,5-c]quinolin-2-one]: the Papp A→B in data set [1] was 24 ×10⁻⁶ cm/s. The IC50 is 0.008 µM on PI3K alpha, 0.021 µM on PI3K beta, 0.031 µM at PI3K delta and 0.092 µM at PI3K gamma.

As to `COc1ccc(-c2ccc3ncc4[nH]c(=O)n(-c5cc(C)nn5C)c4c3n2)cc1OC` [Example 252, 8-(3,4-Dimethoxy-phenyl)-1-(2,5-dimethyl-2H-pyrazol-3-yl)-1,3-dihydro-1,3,5,9-tetraaza-cyclopenta[a]naphthalen-2-one], in data set [1], the Papp A→B amounted to 29.4 ×10⁻⁶ cm/s. For the same compound, the IC50 on PI3K alpha was found to be 0.003 µM; at PI3K beta, 0.024 µM; at PI3K delta it was 0.007 µM; on PI3K gamma, 0.045 µM.

For `CNc1cc(-c2ccc3ncc4c(c3c2)n(-c2cn(C)nc2C)c(=O)n4C)cnc1COC` [Example 159, 1-(1,3-Dimethyl-1H-pyrazol-4-yl)-8-(6-methoxymethyl-5-methylamino-pyridin-3-yl)-3-methyl-1,3-dihydro-imidazo[4,5-c]quinolin-2-one], the Papp A→B in data set [1] came out at 13.9 ×10⁻⁶ cm/s. In addition, the IC50 on PI3K alpha was determined as 0.034 µM; on PI3K beta it was 0.1 µM; at PI3K delta it was 0.025 µM.

Regarding `Cc1nn(C)cc1-n1c(=O)n(C)c2cnc3ccc(-c4cnc(N(C)C)nc4)cc3c21` [Example 6.2, 8-(2-Dimethylamino-pyrimidin-5-yl)-1-(1,3-dimethyl-1H-pyrazol-4-yl)-3-methyl-1,3-dihydro-imidazo[4,5-c]quinolin-2-one], the Papp A→B in data set [1] came to 26.6 ×10⁻⁶ cm/s. Besides, the IC50 at PI3K alpha is 0.022 µM; at PI3K beta, 0.185 µM; on PI3K delta, 0.032 µM; at PI3K gamma, 0.319 µM.

`COCc1cncc(-c2ccc3ncc4c(c3c2)n(-c2cn(C)nc2Cl)c(=O)n4C)c1` [Example 54.2, 1-(3-Chloro-1-methyl-1H-pyrazol-4-yl)-8-(5-methoxymethyl-pyridin-3-yl)-3-methyl-1,3-dihydro-imidazo[4,5-c]quinolin-2-one]: in data set [1], the Papp A→B turned out to be 33.5 ×10⁻⁶ cm/s. The 50% inhibitory concentration (IC50) at PI3K alpha came to 0.03 µM; on PI3K beta, 0.051 µM; on PI3K delta, 0.02 µM.

The record behind these values is patent US20140005163A1 (NOVARTIS AG, priority 2010, published 2014).
